Experimental data taken from ChEMBL document CHEMBL1142962, “Antiproliferative prenylated stilbenes and flavonoids from Macaranga alnifolia from the Madagascar rainforest” (J Nat Prod, 2007).

Test system: A2780 (human ovarian cancer)
Assay: Antiproliferative activity against drug-sensitive human A2780 cells

IC50 [µM]	SMILES
23.5	CC(C)=CCC/C(C)=C/Cc1c(O)cc2c(c1O)C(=O)[C@H](O)[C@@H](c1ccc(O)cc1)O2 [BONANNIOL A]
11.5	CC(C)=CCC/C(C)=C/Cc1c(O)cc2c(c1O)C(=O)[C@H](O)[C@@H](c1ccc(O)c(O)c1)O2 [DIPLACOL]
10.5	CC(C)=CCC/C(C)=C/Cc1c(O)cc2c(c1O)C(=O)C[C@@H](c1ccc(O)c(O)c1)O2 [NYMPHAEOL A]

SMILES	IC50 [µM]
CC(C)=CCC/C(C)=C/Cc1c(O)cc2c(c1O)C(=O)C[C@@H](c1ccc(O)cc1)O2 [BONANNIONE A]	24.5
